What was measured:
BRD3 (His-Brd3(20-477)) = BRD3 (His-Brd3(20-477)) (Homo sapiens (Human), UniProt Q15059); experiment: TR-FRET in-vitro binding assay for BRD3; conditions: single determination or n ≧ 2 independent determinations, read-out: Biochemical IC50 BRD3
Method in brief: (§1)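 In this TR-FRET format, each compound was tested as an 8-point dilution series, single point per concentration, dispensed from 90% DMSO solution. Incubation lasted 35 minutes at 30° C.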

[1] = target: CREBBP bromodomain (His-CREBBP(1081-1197)) (Homo sapiens (Human), UniProt Q92793); experiment: AlphaScreen in-vitro binding assay for CREBBP; conditions: single determination or n ≧ 2 independent determinations, read-out: Biochemical IC50 CREBBP
Chain of CREBBP bromodomain (His-CREBBP(1081-1197)) (Q92793 1081-1197): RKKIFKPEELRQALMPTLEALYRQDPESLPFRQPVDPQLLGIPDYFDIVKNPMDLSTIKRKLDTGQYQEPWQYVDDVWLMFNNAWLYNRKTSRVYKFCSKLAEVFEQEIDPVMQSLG
Method in brief: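 Detection used nickel-chelate acceptor plus streptavidin donor AlphaScreen beads, 1 h room temperature. Percent inhibition fitted by non-linear regression to IC50.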

BRD4 (His-Brd4(44-477)) = BRD4 (His-Brd4(44-477)) (Homo sapiens (Human), UniProt O60885); experiment: TR-FRET in-vitro binding assay for BRD4; conditions: single determination or n ≧ 2 independent determinations, read-out: Biochemical IC50 BRD4
Method in brief: as §1

THP-1 cells = experiment: Cell growth inhibition assay (CellTiter-Glo), THP-1; conditions: for GI50: Homo sapiens, THP-1, read-out: THP-1 GI50; for THP-1 TGI: THP-1 cells, total growth inhibition, CellTiter-Glo;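 for all read-outs here: viability read as cellular ATP luminescence after 4 days, 3-fold dilution series from 10 µM, DMSO vehicle-treated cells taken as 100%, cell-free medium wells as −100%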
BRD2 (His-Brd2(60-472)) = BRD2 (His-Brd2(60-472)) (Homo sapiens (Human), UniProt P25440); experiment: TR-FRET in-vitro binding assay for BRD2; conditions: single determination or n ≧ 2 independent determinations, read-out: Biochemical IC50 BRD2
Chain of BRD2 (His-Brd2(60-472)) (P25440 60-472): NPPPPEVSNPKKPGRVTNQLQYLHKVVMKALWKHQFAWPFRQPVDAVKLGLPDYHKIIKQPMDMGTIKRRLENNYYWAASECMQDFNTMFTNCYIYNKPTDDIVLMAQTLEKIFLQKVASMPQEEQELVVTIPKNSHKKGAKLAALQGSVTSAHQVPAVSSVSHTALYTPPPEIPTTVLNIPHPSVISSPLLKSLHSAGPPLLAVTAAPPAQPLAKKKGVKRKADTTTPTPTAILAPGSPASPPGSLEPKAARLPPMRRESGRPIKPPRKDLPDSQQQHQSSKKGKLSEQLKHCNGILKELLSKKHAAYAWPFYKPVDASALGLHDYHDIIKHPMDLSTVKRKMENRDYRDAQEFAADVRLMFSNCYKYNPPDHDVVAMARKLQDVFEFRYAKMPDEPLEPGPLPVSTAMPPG
Method in brief: as §1

K-562 cells = experiment: Cell growth inhibition assay (CellTiter-Glo), K-562; conditions: for GI50: Homo sapiens, K562, read-out: K-562 GI50; for K-562 TGI: K-562 cells, total growth inhibition, CellTiter-Glo;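 for all read-outs here: cellular ATP measured by luminescence after 4 days of exposure, 3-fold dilution series from 10 µM, DMSO vehicle-treated cells define 100%, cell-free medium wells −100%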
MV-4-11 cells = experiment: Cell growth inhibition assay (CellTiter-Glo), MV-4-11; conditions: for GI50: Homo sapiens, MV4-11, read-out: MV-4-11 GI50; for MV-4-11 TGI: MV-4-11 cells, total growth inhibition, CellTiter-Glo;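 for all read-outs here: cellular ATP luminescence after 4 days, 3-fold dilution series from 10 µM top dose, vehicle (0.1% DMSO) set to 100%, cell-free medium set to −100%, day 0 corrected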

Chain of BRD3 (His-Brd3(20-477)) (Q15059 20-477): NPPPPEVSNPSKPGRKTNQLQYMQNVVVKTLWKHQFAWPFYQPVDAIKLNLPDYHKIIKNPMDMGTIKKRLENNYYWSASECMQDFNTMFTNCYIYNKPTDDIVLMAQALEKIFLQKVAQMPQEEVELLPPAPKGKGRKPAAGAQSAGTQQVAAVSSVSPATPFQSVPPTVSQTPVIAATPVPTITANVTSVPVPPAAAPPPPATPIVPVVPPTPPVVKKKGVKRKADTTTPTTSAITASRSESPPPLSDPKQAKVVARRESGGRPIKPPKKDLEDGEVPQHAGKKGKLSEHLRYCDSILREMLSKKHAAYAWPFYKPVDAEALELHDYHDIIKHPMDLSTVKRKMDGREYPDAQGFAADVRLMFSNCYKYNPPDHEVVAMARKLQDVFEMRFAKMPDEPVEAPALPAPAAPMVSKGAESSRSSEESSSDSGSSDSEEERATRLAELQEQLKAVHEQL

Row | SMILES | IC50 (BRD3 (His-Brd3(20-477))) | IC50 [1] | IC50 (BRD4 (His-Brd4(44-477))) | GI50 (THP-1 cells) | IC50 (BRD2 (His-Brd2(60-472))) | GI50 (K-562 cells) | GI50 (MV-4-11 cells) | THP-1 TGI (THP-1 cells) | K-562 TGI (K-562 cells) | MV-4-11 TGI (MV-4-11 cells)
1 | COc1cc(N2C(=O)c3nc(C4=CCN(C)CC4)n(C(C)C)c3C2c2ccc(Cl)cc2)cc2c1nnn2C (centres unmarked) [Example 73] | 92.5 nM | 16100 nM | 58 nM | 93.6 nM | 150 nM | 300 nM | 30.6 nM | 254.5 nM | >10000 nM | 52.7 nM
2 | Cc1cc(N2C(=O)c3nc(C4CCNCC4)n(C(C)C)c3C2c2ccc(Cl)cc2)cn2c(C)nnc12 (centres unmarked) [Example 75, 6-(4-chlorophenyl)-5-(3,8-dimethyl-[1,2,4]triazolo[4,3-a]pyridin-6-yl)-1-isopropyl-2-(Piperidin-4-yl)-5,6-dihydropyrrolo[3,4-d]imidazol-4(1H)-one] | 24 nM | 4900 nM | 17 nM | 1600 nM | 27 nM | 8650 nM | 780 nM | 8630 nM | >10000 nM | 1125 nM
3 | COC(=O)N1CCC(c2nc3c(n2C(C)C)C(c2ccc(Cl)cc2)N(c2cc(C)c4nnc(C)n4c2)C3=O)CC1 (centres unmarked) [Example 76, methyl 4-(6-(4-chlorophenyl)-5-(3,8-dimethyl-[1,2,4]triazolo[4,3-a]pyridin-6-yl)-1-isopropyl-4-oxo-1,4,5,6-tetrahydropyrrolo[3,4-d]imidazol-2-yl)piperidine-1-carboxylate] | 64 nM | 2050 nM | 54 nM | 95.7 nM | 97 nM | 314 nM | 23.3 nM | 266 nM | >10000 nM | 38.8 nM
4 | Cc1cc(N2C(=O)c3nc(C4=CCN(C)CC4)n(C(C)C)c3C2c2ccc(Cl)cc2)cc2c1nnn2C (centres unmarked) [Example 78, 6-(4-chlorophenyl)-5-(1,4-dimethyl-1H-benzo[d][1,2,3]triazol-6-yl)-1-isopropyl-2-(1-methyl-1,2,3,6-tetrahydropyridin-4-yl)-5,6-dihydropyrrolo[3,4-d]imidazol-4(1H)-one] | 31 nM | 4300 nM | 28 nM | 14.4 nM | 48 nM | 49.6 nM | 4.54 nM | 38.8 nM | >10000 nM | 9.58 nM
5 | Cc1cc(N2C(=O)c3nc(C4=CCOCC4)n(C(C)C)c3C2c2ccc(Cl)cc2)cc2c1nnn2C (centres unmarked) [Example 79, 6-(4-chlorophenyl)-2-(3,6-dihydro-2H-pyran-4-yl)-5-(1,4-dimethyl-1H-benzo[d][1,2,3]triazol-6-yl)-1-isopropyl-5,6-dihydropyrrolo[3,4-d]imidazol-4(1H)-one] | 21.5 nM | 3400 nM | 26 nM | 7.92 nM | 46 nM | 29.6 nM | 5.58 nM | 17.9 nM | >10000 nM | 11.1 nM
6 | COc1ccc(-c2nc3c(n2C(C)C)C(c2ccc(Cl)cc2)N(c2cc(C)c4nnn(C)c4c2)C3=O)cn1 (centres unmarked) [Example 83, 6-(4-chlorophenyl)-5-(1,4-dimethyl-1H-benzo[d][1,2,3]triazol-6-yl)-1-isopropyl-2-(6-methoxypyridin-3-yl)-5,6-dihydropyrrolo[3,4-d]imidazol-4(1H)-one] | 30 nM | > 37000 nM | 24 nM | 27.1 nM | 65 nM | 105 nM | 23.9 nM | 72.2 nM | >10000 nM | 46.4 nM
7 | Cc1cc(N2C(=O)c3nc(C4=CCOCC4)n(C(C)C)c3[C@H]2c2ccc(Cl)cc2)cn2c(C)nnc12 [Example 84, (R)-6-(4-chlorophenyl)-2-(3,6-dihydro-2H-pyran-4-yl)-5-(3,8-dimethyl-[1,2,4]triazolo[4,3-a]pyridin-6-yl)-1-isopropyl-5,6-dihydropyrrolo[3,4-d]imidazol-4(1H)-one] | 24 nM | 3500 nM | 18 nM | 44 nM | 36 nM | 73.2 nM | 14.6 nM | 99.8 nM | >10000 nM | 29.4 nM
8 | Cc1cc(N2C(=O)c3nc(C4=CCCN(C)C4)n(C(C)C)c3[C@H]2c2ccc(Cl)cc2)cn2c(C)nnc12 [Example 85] | 20 nM | 3650 nM | 15 nM | 138 nM | 29 nM | 277 nM | 16.3 nM | 370 nM | >10000 nM | 32.5 nM

The next compounds have a lower IC50 (BRD3 (His-Brd3(20-477))) than those just listed; values first:

Row | IC50 (BRD3 (His-Brd3(20-477))) | IC50 [1] | IC50 (BRD4 (His-Brd4(44-477))) | GI50 (THP-1 cells) | IC50 (BRD2 (His-Brd2(60-472))) | GI50 (K-562 cells) | GI50 (MV-4-11 cells) | SMILES | THP-1 TGI (THP-1 cells) | K-562 TGI (K-562 cells) | MV-4-11 TGI (MV-4-11 cells)
9 | 17 nM | 6650 nM | 17.5 nM | 59.9 nM | 32 nM | 353 nM | 29.6 nM | CCOC(=O)N1CC=C(c2nc3c(n2C(C)C)C(c2ccc(Cl)cc2)N(c2cc(C)c4nnc(C)n4c2)C3=O)CC1 (centres unmarked) [Example 70, ethyl 4-(6-(4-chlorophenyl)-5-(3,8-dimethyl-[1,2,4]triazolo[4,3-a]pyridin-6-yl)-1-isopropyl-4-oxo-1,4,5,6-tetrahydropyrrolo[3,4-d]imidazol-2-yl)-5,6-dihydropyridine-1(2H)-carboxylate] | 188 nM | >10000 nM | 41.3 nM
10 | 18 nM | 4300 nM | 18.5 nM | 63.7 nM | 33 nM | 228 nM | 31.3 nM | Cc1cc(N2C(=O)c3nc(C4=CCN(C(=O)OC(C)C)CC4)n(C(C)C)c3C2c2ccc(Cl)cc2)cn2c(C)nnc12 (centres unmarked) [Example 71, isopropyl 4-(6-(4-chlorophenyl)-5-(3,8-dimethyl-[1,2,4]triazolo[4,3-a]pyridin-6-yl)-1-isopropyl-4-oxo-1,4,5,6-tetrahydropyrrolo[3,4-d]imidazol-2-yl)-5,6-dihydropyridine-1(2H)-carboxylate] | 138.5 nM | >10000 nM | 44.5 nM
11 | < 11 nM | 5100 nM | 12 nM | 222 nM | 23 nM | 1340 nM | 45.8 nM | Cc1cc(N2C(=O)c3nc(C4=CCN(C(=O)NC(C)(C)C)CC4)n(C(C)C)c3C2c2ccc(Cl)cc2)cn2c(C)nnc12 (centres unmarked) [Example 72, N-(tert-butyl)-4-(6-(4-chlorophenyl)-5-(3,8-dimethyl-[1,2,4]triazolo[4,3-a]pyridin-6-yl)-1-isopropyl-4-oxo-1,4,5,6-tetrahydropyrrolo[3,4-d]imidazol-2-yl)-5,6-dihydropyridine-1(2H)-carboxamide] | 746 nM | >10000 nM | 96.9 nM
12 | 12 nM | 1450 nM | 13 nM | 5.53 nM | 17 nM | 28.8 nM | 4.14 nM | Cc1cc(N2C(=O)c3nc(C4CCOCC4)n(C(C)C)c3C2c2ccc(Cl)cc2)cc2c1nnn2C (centres unmarked) [Example 80, 6-(4-chlorophenyl)-5-(1,4-dimethyl-1H-benzo[d][1,2,3]triazol-6-yl)-1-isopropyl-2-(tetrahydro-2H-pyran-4-yl)-5,6-dihydropyrrolo[3,4-d]imidazol-4(1H)-one] | 15.4 nM | >10000 nM | 9.45 nM
13 | < 11 nM | 1500 nM | < 11 nM | 3.82 nM | < 11 nM | 19.5 nM | 3.42 nM | Cc1cc(N2C(=O)c3nc(C4=CCOCC4)n(C(C)C)c3[C@H]2c2ccc(Cl)cc2)cc2c1nnn2C [Example 81, (R)-6-(4-chlorophenyl)-2-(3,6-dihydro-2H-pyran-4-yl)-5-(1,4-dimethyl-1H-benzo[d][1,2,3]triazol-6-yl)-1-isopropyl-5,6-dihydropyrrolo[3,4-d]imidazol-4(1H)-one] | 10.7 nM | >10000 nM | 5.405 nM
14 | < 11 nM | 1080 nM | < 11 nM | 2.54 nM | 13 nM | 8.96 nM | 1.57 nM | Cc1cc(N2C(=O)c3nc(C4CCOCC4)n(C(C)C)c3[C@H]2c2ccc(Cl)cc2)cc2c1nnn2C [Example 82, (R)-6-(4-chlorophenyl)-5-(1,4-dimethyl-1H-benzo[d][1,2,3]triazol-6-yl)-1-isopropyl-2-(tetrahydro-2H-pyran-4-yl)-5,6-dihydropyrrolo[3,4-d]imidazol-4(1H)-one] | 9.82 nM | >10000 nM | 6.03 nM

— patent US9890166B2, “Imidazopyrrolidine derivatives and their use in the treatment of disease” (NOVARTIS AG, priority 2013, dated 2018)
